Assay results as given in paper PMC10949812, “Unveiling CXCR2 as a promising therapeutic target in renal cell carcinoma: exploring the immunotherapeutic paradigm shift through its inhibition by RCT001” (Journal of Experimental & Clinical Cancer Research : CR, 2024).

Legend:
CXCR2 [1] = target: T1, CXCR2 (Homo sapiens, UniProt P25025); experiment: fluorescent conformational probe (λmax shift) kinetics on recombinant CXCR2, SX-682 […] after CXCL8 […]; format: biochemical
T1 construct: recombinant CXCR2 reconstituted in detergent buffer containing lipids
T1 sequence (P25025 1-360): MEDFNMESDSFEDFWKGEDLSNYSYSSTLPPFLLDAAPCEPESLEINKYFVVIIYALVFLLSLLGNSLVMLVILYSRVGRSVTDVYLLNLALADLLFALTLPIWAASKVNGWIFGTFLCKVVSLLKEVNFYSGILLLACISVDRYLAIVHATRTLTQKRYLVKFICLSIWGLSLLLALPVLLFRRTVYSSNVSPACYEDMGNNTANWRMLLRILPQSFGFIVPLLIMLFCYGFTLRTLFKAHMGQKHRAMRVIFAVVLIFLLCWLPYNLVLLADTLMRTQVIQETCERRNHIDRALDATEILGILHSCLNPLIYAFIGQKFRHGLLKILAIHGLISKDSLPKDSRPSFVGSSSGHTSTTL

CXCR2 [2] = target: T1, CXCR2; experiment: fluorescent conformational probe (λmax shift) on recombinant reconstituted CXCR2, dose response and kinetics; format: binding

Row | EC50 (CXCR2 [2]) | Compound | fluorescent conformational probe (λmax shift) kinetics on recombinant CXCR2, SX- (CXCR2 [1])
1 | – | O=C(Nc1ccc(F)cc1)c1cnc(SCc2cc(OC(F)(F)F)ccc2B(O)O)nc1 [SX-682] | Unlike RCT001, SX-682 inhibited CXCL8-induced pocket opening of CXCR2 (Fig. S3c), firmly establishing it as a standard CXCR2 antagonist
2 | 42.7 nM | O=C(Nc1cc(Cl)cc(Cl)c1)Nc1nc2ccc([N+](=O)[O-])cc2s1 [RCT001, 1-(3,5-dichlorophenyl)-3-(6-nitrobenzo[d]thiazol-2-yl) urea] | –
